# In US20250197424A1, “QUINOLINE COMPOUND AND USE THEREOF” (SHANGHAI PHARMACEUTICALS HOLDING CO., LTD., priority 2022, published 2025):
# Structures can show the parent of a compound that is named as a salt.
# Molecular target: GTP-KRAS-G12D:SOS1 (Homo sapiens (Human), UniProt P01116, G12D)
# Assay: GTP-KRAS-G12D:SOS1 binding inhibition
# Method: The IC50 of the compounds was fitted using a nonlinear regression equation with GraphPad Prism 8. The results are presented in Table 2: • Negative control: DMSO • Positive control: 100 μM BI-2852
# The following nonlinear fitting formula was used to obtain the IC50 (half-maximal inhibitory concentration) of the compounds:
# [formula] • X: logarithm of the compound concentration • Y: 665/615 Ratio
# Chain of GTP-KRAS-G12D:SOS1 (P01116-2 other isoform, or with tags, fused parts or gaps G12D): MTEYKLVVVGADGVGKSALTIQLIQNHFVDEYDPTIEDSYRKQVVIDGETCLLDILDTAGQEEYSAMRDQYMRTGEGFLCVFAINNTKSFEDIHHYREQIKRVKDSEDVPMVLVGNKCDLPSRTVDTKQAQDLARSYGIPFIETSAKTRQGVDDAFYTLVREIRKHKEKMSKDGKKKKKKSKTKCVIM
row,SMILES,IC50 [nM]
1,"CCc1cccc2cc(O)cc(-c3c(F)c4c5c(nc(OC[C@]67C[C@@H](F)CN6C[C@@H](CN6CCCCC6)C7)nc5c3F)N3CC5CCC(N5)C3CO4)c12 (single isomer, unassigned) [Compound 27b, 4-((2S or 2R,5aS,6S,9R)-1,3-difluoro-13-(((2R,6R,7aS)-2-fluoro-6-(piperidin-1-ylmethyl)tetrahydro-1H-pyrrolizin-7a(5H)-yl)methoxy)-5a,6,7,8,9,10-hexahydro-5H-6,9-epiminoazepino[2′,1′:3,4][1,4]oxazepino[5,6,7-de]quinazolin-2-yl)-5-ethylnaphthalen-2-ol trihydrochloride]",17.2
2,"Cc1cc(N)nc(-c2c(F)c3c4c(nc(OC[C@@]56CCCN5C[C@H](F)C6)nc4c2F)N2C[C@@H]4CCC(N4)[C@@H]2CCO3)c1C(F)(F)F (single isomer, unassigned) [Compound 26a, 6-((2S or 2R,6aS,7S,10R)-1,3-Difluoro-14-(((2R,7aS)-2-fluorotetrahydro-1H-pyrrolizin-7a(5H)-yl)methoxy)-5,6,6a,7,8,9,10,11-octahydro-7,10-epiminoazepino[1′,2′: 5,6][1,5]oxazocino[4,3,2-de]quinazolin-2-yl)-4-methyl-5-(trifluoromethyl)pyridin-2-amine]",247
3,"O=C1CC2(CCc3c(nc(OC[C@@]45CCCN4C[C@H](F)C5)nc3N3C[C@H]4CC[C@@H](C3)N4)C2)c2cc(O)cc(Cl)c21 (single isomer, unassigned) [Compound 6a, (S or R)-4′-((1R,5S)-3,8-Diazabicyclo[3.2.1]octan-3-yl)-4-chloro-2′-(((2R,7aS)-2-fluorotetrahydro-1H-pyrrolizin-7a(5H)-yl)methoxy)-6-hydroxy-5′,8′-dihydro-6′H-spiro[indene-1,7′-quinazolin]-3 (2H)-one dihydrochloride]",314
4,"CCc1cccc2cc(O)cc(-c3c(F)c4c5c(nc(OC[C@@]67C[C@H](O)CN6C[C@H](F)C7)nc5c3F)N3CC5CCC(N5)C3CO4)c12 (single isomer, unassigned) [Compound 15a, (2S,6R,7aS)-7a-((((2R or 2S, 5aS,6S,9R)-2-(8-Ethyl-3-hydroxynaphthalen-1-yl)-1,3-difluoro-5a,6,7,8,9,10-hexahydro-5H-6,9-epiminoazepino[2′,1′:3,4][1,4]oxazepino[5,6,7-de]quinazolin-13-yl)oxy)methyl)-6-fluorohexahydro-1H-pyrrolizin-2-ol dihydrochloride]",2670
5,"CCc1cccc2cc(O)cc(-c3c(F)c4c5c(nc(OC[C@]67C[C@@H](F)CN6C[C@@H](CN6CCN(C)CC6)C7)nc5c3F)N3CC5CCC(N5)C3CO4)c12 (single isomer, unassigned) [Compound 29b, 4-((2R or 2S, 5aS,6S,9R)-1,3-difluoro-13-(((2R,6R,7aS)-2-fluoro-6-((4-methylpiperazin-1-yl)methyl)tetrahydro-1H-pyrrolizin-7a(5H)-yl)methoxy)-5a,6,7,9,10-hexahydro-5H-6,9-epiminoazepino[2′,1′:3,4][1,4]oxazepino[5,6,7-de]quinazolin-2-yl)-5-ethylnaphthalen-2-ol tetrahydrochloride]",15.7
6,"Oc1ccc(-c2cc[nH]n2)c(-c2c(F)c3c4c(nc(OC[C@@]56CCCN5C[C@H](F)C6)nc4c2F)N2CC4CCC(N4)C2CO3)c1 (stereo partly drawn) [Compound 24, 3-((5aS,6S,9R)-1,3-Difluoro-13-(((2R,7aS)-2-fluorotetrahydro-1H-pyrrolizin-7a(5H)-yl)methoxy)-5a,6,7,8,9,10-hexahydro-5H-6,9-epiminoazepino[2′,1′:3,4][1,4]oxazepino[5,6,7-de]quinazolin-2-yl)-4-(1H-pyrazol-3-yl) phenol dihydrochloride]",2070
7,"CCc1cccc2cc(O)cc(-c3c(F)c4c5c(nc(OC[C@]67C[C@@H](F)CN6C[C@@H](CN6CCOCC6)C7)nc5c3F)N3CC5CCC(N5)C3CO4)c12 (single isomer, unassigned) [Compound 28b, 4-((2S or 2R,5aS,6S,9R)-1,3-difluoro-13-(((2R,6R,7aS)-2-fluoro-6-(morpholinomethyl)tetrahydro-1H-pyrrolizin-7a(5H)-yl)methoxy)-5a,6,7,8,9,10-hexahydro-5H-6,9-epiminoazepino[2′,1′:3,4][1,4]oxazepino[5,6,7-de]quinazolin-2-yl)-5-ethylnaphthalen-2-ol trihydrochloride]",15.2
8,"Oc1cc(-c2c(F)c3c4c(nc(OC[C@@]56CCCN5C[C@H](F)C6)nc4c2F)N2CC4CCC(N4)C2CO3)c2c3c(ccc2c1)CCC3 (single isomer, unassigned) [Compound 14b, 9-((2S or 2R,5aS,6S,9R)-1,3-difluoro-13-(((2R,7aS)-2-fluorotetrahydro-1H-pyrrolizin-7a(5H)-yl)methoxy)-5a,6,7,8,9,10-hexahydro-5H-6,9-epiminoazepino[2′,1′:3,4][1,4]oxazepino[5,6,7-de]quinazolin-2-yl)-2,3-dihydro-1H-cyclopenta[a]naphthalen-7-ol dihydrochloride]",15.3
9,"CCc1cccc2cc(O)cc(-c3c(F)c4c5c(nc(OC[C@]67C[C@@H](F)CN6C[C@@H](CO)C7)nc5c3F)N3CC5CCC(N5)C3CO4)c12 (single isomer, unassigned) [Compound 23b, 4-((2S or 2R,5aS,6S,9R)-1,3-difluoro-13-(((2R,6S,7aS)-2-fluoro-6-(hydroxymethyl)tetrahydro-1H-pyrrolizin-7a(5H)-yl)methoxy)-5a,6,7,8,9,10-hexahydro-5H-6,9-epiminoazepino[2′,1′:3,4][1,4]oxazepino[5,6,7-de]quinazolin-2-yl)-5-ethylnaphthalen-2-ol dihydrochloride]",5.75
10,"CCc1cccc2cc(O)cc(-c3c(F)c4c5c(nc(OC[C@@]67CCCN6C[C@H](F)C7)nc5c3F)N3CC5CCC(N5)C3CO4)c12 (single isomer, unassigned) [Compound 5b, (R or S)-4-((5aS,6S,9R)-1,3-difluoro-13-(((2R,7aS)-2-fluorotetrahydro-1H-pyrrolizin-7a(5H)-yl)methoxy)-5a,6,7,8,9,10-hexahydro-5H-6,9-epiminoazepino[2′,1′:3,4][1,4]oxazepino[5,6,7-de]quinazolin-2-yl)-5-ethylnaphthalen-2-ol dihydrochloride]",2800
11,"COCCc1cccc2cc(O)cc(-c3c(F)c4c5c(nc(OC[C@@]67CCCN6C[C@H](F)C7)nc5c3F)N3CC5CCC(N5)C3CO4)c12 (single isomer, unassigned) [Compound 12b, 4-((2S or 2R,5aS,6S,9R)-1,3-difluoro-13-(((2R,7aS)-2-fluorotetrahydro-1H-pyrrolizin-7a(5H)-yl)methoxy)-5a,6,7,8,9,10-hexahydro-5H-6,9-epiminoazepino[2′,1′:3,4][1,4]oxazepino[5,6,7-de]quinazolin-2-yl)-5-(2-methoxyethyl) naphthalen-2-ol dihydrochloride]",21.3
12,"CCc1cccc2cc(O)cc(-c3c(F)c4c5c(nc(OC[C@@]67CCC8(CC8)N6C[C@H](F)C7)nc5c3F)N3CC5CCC(N5)C3CO4)c12 (single isomer, unassigned) [Compound 20b, 4-((2S or 2R,5aS,6S,9R)-1,3-difluoro-13-(((6′R,7a'S)-6′-fluorotetrahydrospiro[cyclopropane-1,3′-pyrrolizin]-7a′ (5′H)methoxy)-5a,6,7,8,9,10-hexahydro-5H-[6,9]epiminoazepino[2′,1′:3,4][1,4]oxazepino[5,6,7-de]quinazolin-2-yl)-5-ethylnaphthalen-2-oldihydrochloride]",8.81
13,"CCc1cccc2cc(O)cc(-c3c(F)c4c5c(nc(OC[C@]67C[C@@H](F)CN6C[C@@H](CN6CCOCC6)C7)nc5c3F)N3CC5CCC(N5)C3CO4)c12 (single isomer, unassigned) [Compound 28a, 4-((2R or 2S, 5aS,6S,9R)-1,3-Difluoro-13-(((2R,6R,7aS)-2-fluoro-6-(morpholinomethyl)tetrahydro-1H-pyrrolizin-7a(5H)-yl)methoxy)-5a,6,7,8,9,10-hexahydro-5H-6,9-epiminoazepino[2′,1′:3,4][1,4]oxazepino[5,6,7-de]quinazolin-2-yl)-5-ethylnaphthalen-2-ol trihydrochloride]",5300
14,"CCc1cccc2cc(O)cc(-c3c(F)c4c5c(nc(OC[C@]67C[C@@H](F)CN6C[C@H](CO)C7)nc5c3F)N3CC5CCC(N5)C3CO4)c12 (single isomer, unassigned) [Compound 21b, 4-((2S or 2R,5aS,6S,9R)-1,3-difluoro-13-(((2R,6R,7aS)-2-fluoro-6-(hydroxymethyl)tetrahydro-1H-pyrrolizin-7a(5H)-yl)methoxy)-5a,6,7,8,9,10-hexahydro-5H-6,9-epiminoazepino[2′,1′:3,4][1,4]oxazepino[5,6,7-de]quinazolin-2-yl)-5-ethylnaphthalen-2-ol dihydrochloride]",7.21
15,"Cc1cc(N)nc(-c2c(F)c3c4c(nc(OC[C@@]56CCCN5C[C@H](F)C6)nc4c2F)N2C[C@@H]4CCC(N4)[C@H]2CCO3)c1C(F)(F)F (single isomer, unassigned) [Compound 26b, 6-((2R or 2S, 6aS,7S,10R)-1,3-difluoro-14-(((2R,7aS)-2-fluorotetrahydro-1H-pyrrolizin-7a(5H)-yl)methoxy)-5,6,6a,7,8,9,10,11-octahydro-7,10-epiminoazepino[1′,2′: 5,6][1,5]oxazocino[4,3,2-de]quinazolin-2-yl)-4-methyl-5-(trifluoromethyl)pyridin-2-amine]",15.7
16,"CCc1cccc2cc(O)cc(-c3c(F)c4c5c(nc(OC[C@]67C[C@@H](F)CN6C[C@@H](COC)C7)nc5c3F)N3CC5CCC(N5)C3CO4)c12 (single isomer, unassigned) [Compound 18a, 4-((2R or 2S, 5aS,6S,9R)-1,3-Difluoro-13-(((2R,6S,7aS)-2-fluoro-6-(methoxymethyl)tetrahydro-1H-pyrrolizin-7a(5H)-yl)methoxy)-5a,6,7,8,9,10-hexahydro-5H-6,9-epiminoazepino[2′,1′:3,4][1,4]oxazepino[5,6,7-de]quinazolin-2-yl)-5-ethylnaphthalen-2-ol dihydrochloride]",1940
